Reference: US20060069132A1, “Azolecarboxamide herbicides” (priority 2004, published 2006)
Like-named read-outs stand apart in the source and are kept apart here.

How the values were obtained:
[1] = tested on: velvetleaf; assay: Test B pre-/postemergence herbicide test; type: in vivo, Abutilon theophrasti; settings: Abutilon theophrasti, 336 h; for pest or weed control at 125 g/ha: 125 g ai/ha; for pest or weed control at 500 g/ha: 500 g ai/ha
Summary of the method: (§1)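 Pre: seeds sown, then sprayed. Post: 1–4-leaf plants (2–18 cm) sprayed at the same time. Paddy: flooded, treated at 2-leaf stage. Formulation: non-phytotoxic solvent with surfactant. Greenhouse 13–15 days; visual 0–100 score relative to controls.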

[2] = tested on: rice; assay: Test B flooded paddy test; type: in vivo, Oryza sativa; settings: Oryza sativa, 336 h, 1000 g ai/ha, visual rating, scale 0 to 100 (0 no effect, 100 complete control), 13 to 15 days, read-out: Rice plant response rating
Summary of the method: (§2)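 Plants grow to 1- to 4-leaf stage (2–18 cm) for postemergence spraying, or to 2-leaf stage for the paddy test. Formulated compound is applied. Greenhouse holding lasts 13–15 days. Response is scored visually relative to controls, 0 no effect to 100 complete control; a dash means no result.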

[3] = tested on: giant foxtail; assay: Test B pre-/postemergence herbicide test; type: in vivo, Setaria faberi; settings: Setaria faberi, 336 h; for pest or weed control at 125 g/ha: 125 g ai/ha; for pest or weed control at 500 g/ha: 500 g ai/ha
Summary of the method: as §1

[4] = tested on: ducksalad; assay: Test B flooded paddy test; type: in vivo, Heteranthera limosa; settings: Heteranthera limosa, 336 h, 1000 g ai/ha, visual rating, scale 0 to 100 (0 no effect, 100 complete control), 13 to 15 days, read-out: Ducksalad plant response rating
Summary of the method: as §2

[5] = tested on: barnyardgrass; assay: Test B pre-/postemergence herbicide test; type: in vivo, Echinochloa crus-galli; settings: Echinochloa crus-galli; for pest or weed control at 125 g/ha: 125 g ai/ha; for pest or weed control at 500 g/ha: 500 g ai/ha
Summary of the method: (§3)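 Species tested were Echinochloa crus-galli, Ipomoea coccinea, Xanthium strumarium and Oryza sativa, treated both before emergence and at the 1- to 4-leaf stage; rice and barnyardgrass were also tested under flooding at 2 leaves. Greenhouse incubation lasted 13–15 days before visual 0–100 scoring.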

[6] = tested on: barnyardgrass; assay: Test B flooded paddy test; type: in vivo, Echinochloa crus-galli; settings: Echinochloa crus-galli, 336 h, 1000 g ai/ha, visual rating, scale 0 to 100 (0 no effect, 100 complete control), 13 to 15 days, read-out: Barnyardgrass plant response rating
Summary of the method: as §2

[7] = tested on: small flower umbrella sedge; assay: Test B flooded paddy test; type: in vivo, Cyperus difformis; settings: Cyperus difformis, 336 h, 1000 g ai/ha, visual rating, scale 0 to 100 (0 no effect, 100 complete control), 13 to 15 days, read-out: Sedge, Umbrella plant response rating
Summary of the method: as §2

[8] = tested on: blackgrass; assay: Test B postemergence herbicide test; type: in vivo, Alopecurus myosuroides; settings: Alopecurus myosuroides, post-emergence, 336 h, postemergence, visual rating, scale 0 (no effect) to 100 (complete control), read-out: Blackgrass plant response rating
Summary of the method: as §2

[9] = tested on: morningglory; assay: Test B pre-/postemergence herbicide test; type: in vivo, Ipomoea coccinea; settings: Ipomoea, 336 h; for pest or weed control at 125 g/ha: 125 g ai/ha; for pest or weed control at 500 g/ha: 500 g ai/ha
Summary of the method: as §3

[10] = tested on: corn; assay: Test B pre-/postemergence herbicide test; type: in vivo, Zea mays; settings: Zea mays
Summary of the method: as §1

[11] = tested on: large crabgrass; assay: Test B pre-/postemergence herbicide test; type: in vivo, Digitaria sanguinalis; settings: Digitaria sanguinalis; for pest or weed control at 125 g/ha: 125 g ai/ha; for pest or weed control at 500 g/ha: 500 g ai/ha
Summary of the method: as §1

[12] = tested on: pigweed; assay: Test B pre-/postemergence herbicide test; type: in vivo, Amaranthus retroflexus; settings: Amaranthus retroflexus, 336 h; for pest or weed control at 125 g/ha: 125 g ai/ha; for pest or weed control at 500 g/ha: 500 g ai/ha
Summary of the method: as §1

[13] = tested on: wild oat; assay: Test B postemergence herbicide test; type: in vivo, Avena fatua; settings: Avena fatua, post-emergence, 336 h, postemergence, visual rating, scale 0 (no effect) to 100 (complete control), read-out: Oat, Wild plant response rating
Summary of the method: (§4)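 Visual ratings, 0 (no effect) to 100 (complete control), made versus controls after 13–15 d greenhouse. Paddy plants treated at 2-leaf stage; postemergence plants at 1- to 4-leaf stage, 2–18 cm tall.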

[14] = tested on: Surinam grass; assay: Test B pre-/postemergence herbicide test; type: in vivo, Urochloa decumbens; settings: Urochloa decumbens; for pest or weed control at 125 g/ha: 125 g ai/ha; for pest or weed control at 500 g/ha: 500 g ai/ha
Summary of the method: as §1

[15] = tested on: wheat; assay: Test B postemergence herbicide test; type: in vivo, Triticum aestivum; settings: Triticum aestivum, post-emergence, 336 h, postemergence, 500 g ai/ha; visual rating, scale 0 (no effect) to 100 (complete control); read-out: Wheat plant response rating
Summary of the method: as §4

[16] = post-emergence, postemergence, visual rating, scale 0 (no effect) to 100 (complete control), read-out: Velvetleaf plant response rating
[17] = post-emergence, postemergence, visual rating, scale 0 (no effect) to 100 (complete control), read-out: Foxtail, Giant plant response rating
[18] = post-emergence, postemergence, visual rating, scale 0 (no effect) to 100 (complete control), read-out: Barnyardgrass plant response rating
[19] = post-emergence, postemergence, visual rating, scale 0 (no effect) to 100 (complete control), read-out: Morningglory plant response rating
[20] = post-emergence, postemergence, visual rating, scale 0 (no effect) to 100 (complete control), read-out: Crabgrass, Large plant response rating
[21] = post-emergence, postemergence, visual rating, scale 0 (no effect) to 100 (complete control), read-out: Pigweed plant response rating
[22] = post-emergence, postemergence, visual rating, scale 0 (no effect) to 100 (complete control), read-out: Surinam Grass plant response rating

CCn1nc(C(C)(C)C)cc1C(=O)Nc1cccc(C(=O)OC)n1 [Compound 143, methyl 6-[[[3-(1,1-dimethylethyl)-1-ethyl-1H-pyrazol-5-yl]carbonyl]amino]-2-pyridinecarboxylate]
pest or weed control at 125 g/ha [1, 16]: 0%
pest or weed control at 500 g/ha [1, 16]: 20%
pest or weed control at 500 g/ha ([1]; pre-emergence, visual rating 0-100, 0 no effect, 100 complete control, read-out: Plant response rating, Velvetleaf): 0%
pest or weed control at 125 g/ha ([1]; pre-emergence, preemergence, 0 to 100 scale, 0 is no effect, 100 is complete control, read-out: Plant response rating, Velvetleaf): 0%
plant injury at 1000 g/ha [2]: 0%
pest or weed control at 125 g/ha [3, 17]: 0%
pest or weed control at 500 g/ha [3, 17]: 0%
pest or weed control at 500 g/ha ([3]; pre-emergence, visual rating 0-100, 0 no effect, 100 complete control, read-out: Plant response rating, Foxtail, Giant): 0%
pest or weed control at 125 g/ha ([3]; pre-emergence, preemergence, 0 to 100 scale, 0 is no effect, 100 is complete control, read-out: Plant response rating, Foxtail, Giant): 0%
pest or weed control at 1000 g/ha [4]: 0%
pest or weed control at 125 g/ha [5, 18]: 0%
pest or weed control at 500 g/ha [5, 18]: 0%
pest or weed control at 500 g/ha ([5]; pre-emergence, visual rating 0-100, 0 no effect, 100 complete control, read-out: Plant response rating, Barnyardgrass): 0%
pest or weed control at 125 g/ha ([5]; pre-emergence, preemergence, 0 to 100 scale, 0 is no effect, 100 is complete control, read-out: Plant response rating, Barnyardgrass): 0%
pest or weed control at 1000 g/ha [6]: 0%
pest or weed control at 1000 g/ha [7]: 0%
pest or weed control at 125 g/ha ([8]; 125 g ai/ha): 0%
pest or weed control at 500 g/ha ([8]; 500 g ai/ha): 0%
pest or weed control at 125 g/ha [9, 19]: 0%
pest or weed control at 500 g/ha [9, 19]: 0%
pest or weed control at 500 g/ha ([9]; pre-emergence, visual rating 0-100, 0 no effect, 100 complete control, read-out: Plant response rating, Morningglory): 0%
pest or weed control at 125 g/ha ([9]; pre-emergence, preemergence, 0 to 100 scale, 0 is no effect, 100 is complete control, read-out: Plant response rating, Morningglory): 0%
plant injury at 125 g/ha ([10]; post-emergence, postemergence, 125 g ai/ha, visual rating, scale 0 (no effect) to 100 (complete control), read-out: Corn plant response rating): 0%
plant injury at 500 g/ha ([10]; post-emergence, postemergence, 500 g ai/ha, visual rating, scale 0 (no effect) to 100 (complete control), read-out: Corn plant response rating): 10%
Corn plant response rating (crop injury, 0 = no effect, 100 = complete kill) at 500 g/ha ([10]; pre-emergence, 500 g ai/ha, visual rating 0-100, 0 no effect, 100 complete control): 0%
Corn plant response rating (crop injury, 0 = no effect, 100 = complete kill) at 125 g/ha ([10]; pre-emergence, preemergence, 125 g ai/ha, 0 to 100 scale, 0 is no effect, 100 is complete control): 0%
pest or weed control at 125 g/ha [11, 20]: 0%
pest or weed control at 500 g/ha [11, 20]: 0%
pest or weed control at 500 g/ha ([11]; pre-emergence, visual rating 0-100, 0 no effect, 100 complete control, read-out: Plant response rating, Crabgrass, Large): 0%
pest or weed control at 125 g/ha ([11]; pre-emergence, preemergence, 0 to 100 scale, 0 is no effect, 100 is complete control, read-out: Plant response rating, Crabgrass, Large): 0%
pest or weed control at 125 g/ha [12, 21]: 0%
pest or weed control at 500 g/ha [12, 21]: 20%
pest or weed control at 500 g/ha ([12]; pre-emergence, visual rating 0-100, 0 no effect, 100 complete control, read-out: Plant response rating, Pigweed): 0%
pest or weed control at 125 g/ha ([12]; pre-emergence, preemergence, 0 to 100 scale, 0 is no effect, 100 is complete control, read-out: Plant response rating, Pigweed): 0%
pest or weed control at 125 g/ha ([13]; 125 g ai/ha): 0%
pest or weed control at 500 g/ha ([13]; 500 g ai/ha): 20%
pest or weed control at 125 g/ha [14, 22]: 10%
pest or weed control at 500 g/ha [14, 22]: 10%
pest or weed control at 500 g/ha ([14]; pre-emergence, visual rating 0-100, 0 no effect, 100 complete control, read-out: Plant response rating, Surinam Grass): 0%
pest or weed control at 125 g/ha ([14]; pre-emergence, preemergence, 0 to 100 scale, 0 is no effect, 100 is complete control, read-out: Plant response rating, Surinam Grass): 0%
plant injury at 500 g/ha [15]: 0%
